Here are results for one compound from patent US7803546B2, “Method of screening for sensitivity to kinase inhibitor therapy” (Cedars-Sinai Medical Center, priority 2002, dated 2010).

In series [1] the test system is androgen-independent (CWR22R) xenograft tumors. As to the method: (§1) A control (i.e., no TKI administered) is graphically depicted as well. This experiment was performed in an androgen-independent prostate xenograft model. […] The daily dosing was at the maximally tolerated dosage in the mice.
as §1

Series [2] has as its system non-small cell lung cancer. As to the kind of experiment: Clinical response to TKI therapy in non-small cell lung cancer patients, correlated with EMP-1 expression. It is filed as in vivo, human. Conditions: NSCLC patients; EMP-1 detectable by TAQMAN. As to the method: The gene expression profiles of IR tumors were analyzed by gene chip analysis, using the gene arrays described in Alon et al., Proc. Natl. Acad. Sci. USA, vol. […] Presence of EMP-1 RNA was assessed with TAQMAN from paraffin samples.
In general terms: In qPCR the cycle at which signal appears reflects the starting amount.

Series [3] concerns IRESSA-resistant (IR) CWR22R tumors. As to the kind of experiment: Treatment of IRESSA-resistant (IR) CWR22R tumor lines. Conditions: after three weeks of treatment, tumor growth curves.

In the case of `COc1cc2ncnc(Nc3ccc(F)c(Cl)c3)c2cc1OCCCN1CCOCC1` [IRESSA, Gefitnib], the “Tolerability of weekly dosing” value in series [1] (mouse, in vivo) is recorded as “well tolerated”. Moreover, the “Decrease in tumor volume in this tumor model” value in series [1] (summary range following IRESSA treatment (covers CWR22 and CWR22R)) is recorded as 50-70%. Besides, the “Probability of response to therapy in individuals with EMP-1 expression above threshold” value in series [2] is listed as “less than 10%”. Moreover, the “Response of serially passaged tumors to IRESSA, generations F0-F3” value in series [3] was “demonstrated sensitivity”.
